Results reported in ChEMBL document CHEMBL5576152, “Antitubercular evaluation of dihydropyridine-triazole conjugates: design, synthesis, in vitro screening, SAR and in silico ADME predictions” (RSC Med Chem, 2024).
In brackets after ≈: the same amount, converted by molar mass.

Tests used:
[1] = system: Mycobacterium tuberculosis; assay: Antitubercular activity against Mycobacterium tuberculosis H37Ra assessed as reduction in microbial growth incubated for 5 days by resazurin microtiter assay; type: functional; conditions: 120 h, time 5 day
[2] = Cytotoxicity against human THP-1 cells assessed as reduction in cell viability incubated for 48 hrs by resazurin assay; type: toxicity, cell-based
[3] = Selectivity index, ratio of CC50 for cytotoxicity against human THP-1 cells to MIC90 for antitubercular activity against Mycobacterium tuberculosis H37Ra; type: toxicity, cell-based; conditions: read-out: Selectivity Index
[4] = Stability of compound in simulated physiological fluid assessed as remaining compound at pH 7.4 measured upto 120 mins by UPLC analysis; type: ADME; conditions: read-out: Stability
[5] = Stability of compound in simulated gastric fluid assessed as remaining compound at pH 1.2 measured upto 120 mins by UPLC analysis; type: ADME; conditions: read-out: Stability
[6] = Stability of compound in simulated intestinal fluid assessed as remaining compound at pH 6.8 measured upto 120 mins by UPLC analysis; type: ADME; conditions: read-out: Stability
[7] = Stability of compound in rat plasma assessed as remaining compound measured upto 120 mins by UPLC analysis; type: ADME, cell-free; conditions: read-out: Stability
[8] = Half life in Sprague-Dawley rat at 50 mg/kg, po measured for 5 to 1440 mins by LC-MS/MS analysis; type: ADME, organism-based; conditions: in vivo, time 5-1440 min
[9] = Tmax in Sprague-Dawley rat at 50 mg/kg, po measured for 5 to 1440 mins by LC-MS/MS analysis; type: ADME, organism-based; conditions: in vivo, time 5-1440 min
[10] = Cmax in Sprague-Dawley rat at 50 mg/kg, po measured for 5 to 1440 mins by LC-MS/MS analysis; type: ADME, organism-based; conditions: in vivo, time 5-1440 min
[11] = Apparent volume of distribution in Sprague-Dawley rat at 50 mg/kg, po measured for 5 to 1440 mins by LC-MS/MS analysis; type: ADME, organism-based; conditions: in vivo, time 5-1440 min
[12] = MRT in Sprague-Dawley rat at 50 mg/kg, po measured for 5 to 1440 mins by LC-MS/MS analysis; type: ADME, organism-based; conditions: in vivo, time 5-1440 min
[13] = system: Mycobacterium tuberculosis; assay: Antitubercular activity against Mycobacterium tuberculosis H37Rv assessed as reduction in microbial growth by BACTEC 460-radiometric assay; type: functional
[14] = system: Mycobacterium tuberculosis; assay: Antitubercular activity against Mycobacterium tuberculosis H37Rv assessed as reduction in microbial growth by microplate alamar blue assay; type: functional
[15] = system: Mycobacterium tuberculosis; assay: Antitubercular activity against Mycobacterium tuberculosis H37Ra assessed as reduction in microbial growth at 2 ug/ml incubated for 5 days by resazurin microtiter assay relative to control; type: functional; conditions: 120 h, time 5 day
[16] = system: Mycobacterium tuberculosis; assay: Antitubercular activity against Mycobacterium tuberculosis H37Ra assessed as reduction in microbial growth at 6 ug/ml incubated for 5 days by resazurin microtiter assay relative to control; type: functional; conditions: 120 h, time 5 day

Structure (SMILES) | MIC90 [1] [µg/mL] | other results
CC1=C(C(=O)NCc2cn(-c3ccc(C)cc3)nn2)C(c2ccc(Cl)cc2)C2=C(CC(C)(C)CC2=O)N1 (stereo not given) | 6.44 | CC50 at 48 h [2]: 44.3 µg/mL (≈ 85.9 µM); selectivity ratio [3]: 6.88
CC1=C(C(=O)NCc2cn(Cc3ccccc3)nn2)C(c2ccccc2)C2=C(CC(C)(C)CC2=O)N1 (stereo not given) | > 25 | –
COc1cc(C2C(C(=O)NCc3cn(-c4ccccc4)nn3)=C(C)NC3=C2C(=O)CC(C)(C)C3)cc(OC)c1OC (stereo not given) | > 25 | –
COc1ccc(-n2cc(CNC(=O)C3=C(C)NC4=C(C(=O)CC(C)(C)C4)C3c3cccc(Cl)c3)nn2)cc1 (stereo not given) | > 25 | –
CC1=C(C(=O)NCc2cn(-c3ccc(F)cc3)nn2)C(c2ccc(Cl)cc2)C2=C(CC(C)(C)CC2=O)N1 (stereo not given) | 25.9 | –
COc1cc(C2C(C(=O)NCc3cn(-c4cccc(C(F)(F)F)c4)nn3)=C(C)NC3=C2C(=O)CC(C)(C)C3)cc(OC)c1OC (stereo not given) | > 25 | –
COc1ccc(C2C(C(=O)NCc3cn(-c4cccc(C(F)(F)F)c4)nn3)=C(C)NC3=C2C(=O)CC(C)(C)C3)cc1 (stereo not given) | > 25 | –
CC1=C(C(=O)NCc2cn(-c3ccccc3)nn2)C(c2ccccc2)C2=C(CC(C)(C)CC2=O)N1 (stereo not given) | > 25 | –
CC1=C(C(=O)NCc2cn(-c3ccc(C)cc3)nn2)C(c2ccccc2)C2=C(CC(C)(C)CC2=O)N1 (stereo not given) | 24.1 | –
COc1cc(C2C(C(=O)NCc3cn(-c4ccc(F)cc4)nn3)=C(C)NC3=C2C(=O)CC(C)(C)C3)cc(OC)c1OC (stereo not given) | > 25 | –
CC1=C(C(=O)NCc2cn(-c3ccc(F)cc3)nn2)C(c2cccs2)C2=C(CC(C)(C)CC2=O)N1 (stereo not given) | > 25 | –
COc1ccc(-n2cc(CNC(=O)C3=C(C)NC4=C(C(=O)CC(C)(C)C4)C3c3cccs3)nn2)cc1 (stereo not given) | > 25 | –
CC1=C(C(=O)NCc2cn(-c3ccccc3)nn2)C(c2ccc(F)cc2)C2=C(CC(C)(C)CC2=O)N1 (stereo not given) | 12.1 | –
CC1=C(C(=O)NCc2cn(-c3ccc(Cl)cc3)nn2)C(c2scnc2C)C2=C(CC(C)(C)CC2=O)N1 (stereo not given) | > 25 | –
CC1=C(C(=O)NCc2cn(-c3ccc(C)cc3)nn2)C(c2ccc(F)cc2)C2=C(CC(C)(C)CC2=O)N1 (stereo not given) | 6.24 | CC50 at 48 h [2]: > 99.8 µg/mL; selectivity ratio [3]: > 16; remaining at 2 h [4]: ≥ 70%; remaining at 2 h [5]: ≥ 70%; remaining at 2 h [6]: ≥ 70%; remaining at 2 h [7]: ≥ 70%; half-life [8]: 4.16 h; Tmax [9]: 1.33 h; Cmax [10]: 1400 ng/mL; Vd(app) [11]: 0.02778 L/kg; MRT [12]: 6.69 h
CC1=C(C(=O)NCc2cn(-c3ccc(C)cc3)nn2)C(c2scnc2C)C2=C(CC(C)(C)CC2=O)N1 (stereo not given) | > 25 | –
COc1ccc(-n2cc(CNC(=O)C3=C(C)NC4=C(C(=O)CC(C)(C)C4)C3c3ccc(Cl)cc3)nn2)cc1 (stereo not given) | 6.64 | CC50 at 48 h [2]: 64.6 µg/mL (≈ 121 µM); selectivity ratio [3]: 9.73
COc1ccc(C2C(C(=O)NCc3cn(-c4ccccc4)nn3)=C(C)NC3=C2C(=O)CC(C)(C)C3)cc1 (stereo not given) | > 25 | –

Structure (SMILES) | MIC90 [1] [µg/mL] | other results
COC(=O)C1=C(C)NC(C)=C(C2=NN(C(C)=O)C(c3ccccc3)C2)C1c1cccc([N+](=O)[O-])c1 (stereo not given) | – | MIC [13]: > 12.5 µg/mL
CC1=C(C(=O)NCc2cn(-c3ccccc3)nn2)C(c2ccc(Cl)cc2)C2=C(CC(C)(C)CC2=O)N1 (stereo not given) | 6.26 | CC50 at 48 h [2]: 66.4 µg/mL (≈ 132 µM); selectivity ratio [3]: 10.6
CC1=C(C(=O)NCc2cn(Cc3ccccc3)nn2)C(c2ccc(Cl)cc2)C2=C(CC(C)(C)CC2=O)N1 (stereo not given) | > 25 | –
CC1=C(C(=O)NCc2cn(-c3ccc(Cl)cc3)nn2)C(c2ccccc2)C2=C(CC(C)(C)CC2=O)N1 (stereo not given) | 25.1 | –
CC1=C(C(=O)NCc2cn(-c3ccc(C)cc3)nn2)C(c2ccc(Cl)cc2)C2=C(CCCC2=O)N1 (stereo not given) | > 25 | –
COc1ccc(-n2cc(CNC(=O)C3=C(C)NC4=C(C(=O)CC(C)(C)C4)C3c3ccc(F)cc3)nn2)cc1 (stereo not given) | 6.44 | CC50 at 48 h [2]: > 103 µg/mL; selectivity ratio [3]: > 16
CC1=C(C(=O)NCc2cn(-c3ccccc3C(F)(F)F)nn2)C(c2ccc(Cl)cc2)C2=C(CC(C)(C)CC2=O)N1 (stereo not given) | > 25 | –
COc1ccc(-n2cc(CNC(=O)C3=C(C)NC4=C(C(=O)CC(C)(C)C4)C3c3ccccn3)nn2)cc1 (stereo not given) | > 25 | –
CC1=C(C(=O)NCc2cn(Cc3ccccc3)nn2)C(c2scnc2C)C2=C(CC(C)(C)CC2=O)N1 (stereo not given) | > 25 | –
CC1=C(C(=O)NCc2cn(-c3ccccc3)nn2)C(c2scnc2C)C2=C(CC(C)(C)CC2=O)N1 (stereo not given) | > 25 | –
COc1cc(-n2cc(CNC(=O)C3=C(C)NC4=C(C(=O)CC(C)(C)C4)C3c3ccc(Cl)cc3)nn2)cc(OC)c1OC (stereo not given) | > 25 | –
COc1ccc(-n2cc(CNC(=O)C3=C(C)NC4=C(C(=O)CC(C)(C)C4)C3c3ccccc3Cl)nn2)cc1 (stereo not given) | 13.3 | –
CC1=C(C(=O)NCc2cn(-c3ccc(C)cc3)nn2)C(c2ccc(F)cc2)C2=C(CCCC2=O)N1 (stereo not given) | 11.8 | –
CC1=C(C(=O)NCc2cn(-c3ccccc3)nn2)C(c2cccs2)C2=C(CC(C)(C)CC2=O)N1 (stereo not given) | > 25 | –
CCCCc1nc(Cl)c(C2C(C(=O)Nc3ccc(F)cc3)=C(C)NC(C)=C2C(=O)Nc2ccc(F)cc2)n1Cc1ccccc1 | – | MIC [14]: 0.02 µg/mL
CC1=C(C(=O)NCc2cn(-c3ccc(C(C)C)cc3)nn2)C(c2ccc(Cl)cc2)C2=C(CC(C)(C)CC2=O)N1 (stereo not given) | 27.2 | –
CO[C@H]1/C=C/O[C@@]2(C)Oc3c(C)c(O)c4c(O)c(c(/C=N/N5CCN(C)CC5)c(O)c4c3C2=O)NC(=O)/C(C)=C\C=C\[C@H](C)[C@H](O)[C@@H](C)[C@@H](O)[C@@H](C)[C@H](OC(C)=O)[C@@H]1C [RIFAMPIN] | – | inhibition at 2 µg/mL [15]: > 99%
CN[C@@H]1[C@H](O[C@H]2[C@H](O[C@H]3[C@H](O)[C@@H](O)[C@H](N=C(N)N)[C@@H](O)[C@@H]3N=C(N)N)O[C@@H](C)[C@]2(O)C=O)O[C@@H](CO)[C@H](O)[C@H]1O [STREPTOMYCIN] | – | inhibition at 6 µg/mL [16]: > 99%
